In ChEMBL document CHEMBL4257449, “New N-(2-phenyl-4-oxo-1,3-thiazolidin-3-yl)-1,2-benzothiazole-3-carboxamides and acetamides as antimicrobial agents” (2017):
≈ marks a conversion by molar mass, not a printed value.

Tests used:
[1] = test system: Salmonella typhimurium; assay: Bactericidal activity against Salmonella typhimurium ATCC 13311 incubated for 24 hrs followed by serial sub-cultivation and measured after 24 hrs by microdilution method; format: functional, Salmonella enterica subsp. enterica serovar Typhimurium
[2] = test system: Trichoderma viride; assay: Fungicidal activity against Trichoderma viride IAM 5061 incubated for 72 hrs followed by serial sub-cultivation for 72 hrs and measured after 72 hrs by serial dilution method; format: functional
[3] = test system: Micrococcus flavus; assay: Antibacterial activity against Micrococcus flavus ATCC 10240 after 24 hrs by microdilution method; format: functional; settings: ATCC 10240, 24 h
[4] = test system: Micrococcus flavus; assay: Bactericidal activity against Micrococcus flavus ATCC 10240 incubated for 24 hrs followed by serial sub-cultivation and measured after 24 hrs by microdilution method; format: functional
[5] = test system: Staphylococcus aureus; assay: Antibacterial activity against Staphylococcus aureus ATCC 6538 after 24 hrs by microdilution method; format: functional; settings: ATCC 6538, 24 h
[6] = test system: Enterobacter cloacae; assay: Antibacterial activity against Enterobacter cloacae after 24 hrs by microdilution method; format: functional
[7] = test system: Candida albicans; assay: Antifungal activity against Candida albicans after 72 hrs by serial dilution method; format: functional
[8] = test system: Penicillium ochrochloron; assay: Antifungal activity against Penicillium ochrochloron ATCC 9112 after 72 hrs by serial dilution method; format: functional; settings: ATCC 9112, 72 h
[9] = test system: Listeria monocytogenes; assay: Bactericidal activity against Listeria monocytogenes NCTC 7973 incubated for 24 hrs followed by serial sub-cultivation and measured after 24 hrs by microdilution method; format: functional
[10] = test system: Enterobacter cloacae; assay: Bactericidal activity against Enterobacter cloacae incubated for 24 hrs followed by serial sub-cultivation and measured after 24 hrs by microdilution method; format: functional
[11] = test system: Penicillium ochrochloron; assay: Fungicidal activity against Penicillium ochrochloron ATCC 9112 incubated for 72 hrs followed by serial sub-cultivation for 72 hrs and measured after 72 hrs by serial dilution method; format: functional
[12] = test system: Bacillus cereus; assay: Bactericidal activity against Bacillus cereus incubated for 24 hrs followed by serial sub-cultivation and measured after 24 hrs by microdilution method; format: functional
[13] = test system: Bacillus cereus; assay: Antibacterial activity against Bacillus cereus after 24 hrs by microdilution method; format: functional
[14] = test system: Talaromyces funiculosus; assay: Antifungal activity against Penicillium funiculosum ATCC 36839 after 72 hrs by serial dilution method; format: functional; settings: ATCC 36839, 72 h
[15] = test system: Talaromyces funiculosus; assay: Fungicidal activity against Penicillium funiculosum ATCC 36839 incubated for 72 hrs followed by serial sub-cultivation for 72 hrs and measured after 72 hrs by serial dilution method; format: functional
[16] = test system: Candida albicans; assay: Fungicidal activity against Candida albicans incubated for 72 hrs followed by serial sub-cultivation for 72 hrs and measured after 72 hrs by serial dilution method; format: functional
[17] = test system: Aspergillus versicolor; assay: Fungicidal activity against Aspergillus versicolor ATCC 11730 incubated for 72 hrs followed by serial sub-cultivation for 72 hrs and measured after 72 hrs by serial dilution method; format: functional
[18] = test system: Aspergillus ochraceus; assay: Fungicidal activity against Aspergillus ochraceus ATCC 12066 incubated for 72 hrs followed by serial sub-cultivation for 72 hrs and measured after 72 hrs by serial dilution method; format: functional
[19] = test system: Escherichia coli; assay: Antibacterial activity against Escherichia coli ATCC 35210 after 24 hrs by microdilution method; format: functional; settings: ATCC 35210, 24 h
[20] = test system: Aspergillus niger; assay: Antifungal activity against Aspergillus niger ATCC 6275 after 72 hrs by serial dilution method; format: functional; settings: ATCC 6275, 72 h
[21] = test system: Salmonella typhimurium; assay: Antibacterial activity against Salmonella typhimurium ATCC 13311 after 24 hrs by microdilution method; format: functional, Salmonella enterica subsp. enterica serovar Typhimurium; settings: Salmonella enterica, ATCC 13311, 24 h
[22] = test system: Pseudomonas aeruginosa; assay: Bactericidal activity against Pseudomonas aeruginosa ATCC 27853 incubated for 24 hrs followed by serial sub-cultivation and measured after 24 hrs by microdilution method; format: functional
[23] = test system: Listeria monocytogenes; assay: Antibacterial activity against Listeria monocytogenes NCTC 7973 after 24 hrs by microdilution method; format: functional; settings: NCTC 7973, 24 h
[24] = test system: Aspergillus niger; assay: Fungicidal activity against Aspergillus niger ATCC 6275 incubated for 72 hrs followed by serial sub-cultivation for 72 hrs and measured after 72 hrs by serial dilution method; format: functional
[25] = test system: Escherichia coli; assay: Bactericidal activity against Escherichia coli ATCC 35210 incubated for 24 hrs followed by serial sub-cultivation and measured after 24 hrs by microdilution method; format: functional
[26] = test system: Pseudomonas aeruginosa; assay: Antibacterial activity against Pseudomonas aeruginosa ATCC 27853 after 24 hrs by microdilution method; format: functional; settings: ATCC 27853, 24 h
[27] = test system: Aspergillus fumigatus; assay: Fungicidal activity against Aspergillus fumigatus incubated for 72 hrs followed by serial sub-cultivation for 72 hrs and measured after 72 hrs by serial dilution method; format: functional
[28] = test system: Trichoderma viride; assay: Antifungal activity against Trichoderma viride IAM 5061 after 72 hrs by serial dilution method; format: functional; settings: IAM 5061, 72 h
[29] = test system: Aspergillus ochraceus; assay: Antifungal activity against Aspergillus ochraceus ATCC 12066 after 72 hrs by serial dilution method; format: functional; settings: ATCC 12066, 72 h
[30] = test system: Aspergillus fumigatus; assay: Antifungal activity against Aspergillus fumigatus after 72 hrs by serial dilution method; format: functional
[31] = test system: Staphylococcus aureus; assay: Bactericidal activity against Staphylococcus aureus ATCC 6538 incubated for 24 hrs followed by serial sub-cultivation and measured after 24 hrs by microdilution method; format: functional
[32] = test system: Aspergillus versicolor; assay: Antifungal activity against Aspergillus versicolor ATCC 11730 after 72 hrs by serial dilution method; format: functional; settings: ATCC 11730, 72 h

Row | MIC [3] [µM] | MIC [5] [µM] | MIC [6] [µM] | MIC [7] [µM] | MIC [8] [µM] | MIC [13] [µM] | MIC [14] [µM] | MIC [19] [µM] | MIC [20] [µM] | SMILES | MBC99.5 [1] [×10⁻² umol/ml] | MFC99.5 [2] [×10⁻² umol/ml] | MBC99.5 [4] [×10⁻² umol/ml] | MBC99.5 [9] [×10⁻² umol/ml] | MBC99.5 [10] [×10⁻² umol/ml] | MFC99.5 [11] [×10⁻² umol/ml] | MBC99.5 [12] [×10⁻² umol/ml] | MFC99.5 [15] [×10⁻² umol/ml] | MFC99.5 [16] [×10⁻² umol/ml] | MFC99.5 [17] [×10⁻² umol/ml] | MFC99.5 [18] [×10⁻² umol/ml] | other results
1 | 270 (≈ 114 µg/mL) | 147 (≈ 62 µg/mL) | 147 (≈ 62 µg/mL) | 49 (≈ 20.7 µg/mL) | 49 (≈ 20.7 µg/mL) | 147 (≈ 62 µg/mL) | 49 (≈ 20.7 µg/mL) | 270 (≈ 114 µg/mL) | 196 (≈ 82.7 µg/mL) | O=C(Cc1nsc2ccccc12)NN1C(=O)CSC1c1c(F)cccc1Cl (stereo unspecified) | 36.7 | 4.9 | 36.7 | 73.4 | 19.6 | 9.8 | 36.7 | 9.8 | 9.8 | 9.8 | 19.6 | MIC [21]: 196 µM (≈ 82.7 µg/mL); MBC99.5 [22]: 36.7 ×10⁻² umol/ml; MIC [23]: 367 µM (≈ 155 µg/mL); MFC99.5 [24]: 36.7 ×10⁻² umol/ml; MBC99.5 [25]: 36.7 ×10⁻² umol/ml; MIC [26]: 270 µM (≈ 114 µg/mL); MFC99.5 [27]: 19.6 ×10⁻² umol/ml; MIC [28]: 38 µM (≈ 16 µg/mL); MIC [29]: 98 µM (≈ 41.3 µg/mL); MIC [30]: 98 µM (≈ 41.3 µg/mL); MBC99.5 [31]: 19.6 ×10⁻² umol/ml; MIC [32]: 49 µM (≈ 20.7 µg/mL)
2 | 272 (≈ 110 µg/mL) | 198 (≈ 80.3 µg/mL) | 198 (≈ 80.3 µg/mL) | 99 (≈ 40.1 µg/mL) | 148 (≈ 60 µg/mL) | 198 (≈ 80.3 µg/mL) | 74 (≈ 30 µg/mL) | 272 (≈ 110 µg/mL) | 148 (≈ 60 µg/mL) | O=C(Cc1nsc2ccccc12)NN1C(=O)CSC1c1c(F)cccc1F (stereo unspecified) | 37 | 9.9 | 37 | 74 | 37 | 19.8 | 37 | 9.9 | 19.8 | 9.9 | 9.9 | MIC [21]: 198 µM (≈ 80.3 µg/mL); MBC99.5 [22]: 37 ×10⁻² umol/ml; MIC [23]: 543 µM (≈ 220 µg/mL); MFC99.5 [24]: 19.8 ×10⁻² umol/ml; MBC99.5 [25]: 37 ×10⁻² umol/ml; MIC [26]: 272 µM (≈ 110 µg/mL); MFC99.5 [27]: 37 ×10⁻² umol/ml; MIC [28]: 74 µM (≈ 30 µg/mL); MIC [29]: 74 µM (≈ 30 µg/mL); MIC [30]: 296 µM (≈ 120 µg/mL); MBC99.5 [31]: 37 ×10⁻² umol/ml; MIC [32]: 74 µM (≈ 30 µg/mL)
3 | 273 (≈ 110 µg/mL) | 198 (≈ 80 µg/mL) | 570 (≈ 230 µg/mL) | 198 (≈ 80 µg/mL) | 100 (≈ 40.4 µg/mL) | 100 (≈ 40.4 µg/mL) | 144 (≈ 58.2 µg/mL) | 273 (≈ 110 µg/mL) | 198 (≈ 80 µg/mL) | O=C(Cc1nsc2ccccc12)NN1C(=O)CSC1c1ccc(Cl)cc1 (stereo unspecified) | 74.4 | 19.8 | 37.2 | 111.6 | 74.4 | 19.8 | 19.8 | 19.8 | 37.2 | 19.8 | 19.8 | MIC [21]: 372 µM (≈ 150 µg/mL); MBC99.5 [22]: 74.4 ×10⁻² umol/ml; MIC [23]: 744 µM (≈ 301 µg/mL); MFC99.5 [24]: 37.2 ×10⁻² umol/ml; MBC99.5 [25]: 37.2 ×10⁻² umol/ml; MIC [26]: 372 µM (≈ 150 µg/mL); MFC99.5 [27]: 74.4 ×10⁻² umol/ml; MIC [28]: 100 µM (≈ 40.4 µg/mL); MIC [29]: 100 µM (≈ 40.4 µg/mL); MIC [30]: 372 µM (≈ 150 µg/mL); MBC99.5 [31]: 37.2 ×10⁻² umol/ml; MIC [32]: 100 µM (≈ 40.4 µg/mL)
